Earlier results, collected in paper PMC4315033, “The regulation of muscle mass by endogenous glucocorticoids” (Frontiers in Physiology, 2015).

Experiments:
[1] = test system: mineralocorticoid receptor; parameters: method as in Chapman et al., 2013; details: ref Chapman et al., 2013
cultured myotubes [2] = test system: cultured myotubes; parameters: method as in Biedasek et al., 2011; details: ref Biedasek et al., 2011
TRAF6 = test system: TRAF6; parameters: method as in Sun et al., 2014; details: pharmacologic doses; ref Sun et al., 2014
cultured myotubes [3] = test system: cultured myotubes; parameters: method as in Lokireddy et al., 2012; details: ref Lokireddy et al., 2012
muscle atrophy = test system: muscle atrophy; parameters: method as in Hu et al., 2009; details: ref Hu et al., 2009
miR27a and b = test system: miR27a and b; parameters: method as in Allen and Loh, 2011; details: ref Allen and Loh, 2011
GR^dim mice = test system: GR^dim mice; parameters: method as in Reichardt et al., 1998; Tuckermann et al., 1999; details: ref Reichardt et al., 1998, Tuckermann et al., 1999
MAFbx and MuRF1 = test system: MAFbx and MuRF1; parameters: method as in Frost et al., 2007; details: adult rats, ref Frost et al., 2007
muscle protein breakdown = test system: muscle protein breakdown; parameters: method as in Zamir et al., 1992; details: ref Zamir et al., 1992
MAFbx, MuRF1, and Foxo1 = test system: MAFbx, MuRF1, and Foxo1; parameters: method as in Braun et al., 2011; details: inflammatory cytokines delivered directly into the brain; ref Braun et al., 2011
muscle wasting = test system: muscle wasting; parameters: method as in Song et al., 2005; details: angiotensin II infused at concentrations mimicking endogenous production in CKD, co-administration; ref Song et al., 2005
muscle explants = test system: muscle explants; parameters: method as in Tiao et al., 1996; details: juvenile rats, explants harvested 16 h after CLP; ref Tiao et al., 1996

Q: Which “affinity for mineralocorticoid receptor relative to GR” value [1] does the source give for `C[C@]12CCC(=O)C=C1CC[C@@H]1[C@@H]2[C@@H](O)C[C@@]2(C)[C@H]1CC[C@]2(O)C(=O)CO` [Cortisol] here?
A: higher affinity

Q: Which “proteolysis and atrophy in cultured myotubes” value (cultured myotubes [2]) does the source give for `C[C@]12CCC(=O)C=C1CC[C@@H]1[C@@H]2C(=O)C[C@@]2(C)[C@H]1CC[C@]2(O)C(=O)CO` [cortisone] here?
A: capable of inducing

Q: And the “binding to the GR” value (GR)?
A: does not bind

Q: Which TRAF6 expression (TRAF6) does the source give for `C[C@@H]1C[C@H]2[C@@H]3CCC4=CC(=O)C=C[C@]4(C)[C@@]3(F)[C@@H](O)C[C@]2(C)[C@@]1(O)C(=O)CO` [dexamethasone] here?
A: increase

Q: And the Mul1 expression (cultured myotubes [3])?
A: induces

Q: What about the mitophagy (cultured myotubes [3]) of the same compound?
A: induces

Q: What about the “muscle atrophy, given in isolation” value (muscle atrophy; dose estimated to mimic endogenous concentrations in diabetic animals) of the same compound?
A: insufficient to evoke substantial atrophy

Q: What about the “muscle atrophy in diabetic adrenalectomized mice” value (muscle atrophy; same dose, streptozotocin-induced diabetes) of the same compound?
A: restores normal muscle atrophy

Q: What about the “levels of miR27a and b in skeletal muscle” value (miR27a and b) of the same compound?
A: decrease

Q: And the PMA-induced skin inflammation (GR^dim mice)?
A: continued to suppress

Q: And the “expression of genes regulating carbohydrate balance” value (GR^dim mice)?
A: failed to alter

Q: Which results are given for `CC#C[C@]1(O)CC[C@H]2[C@@H]3CCC4=CC(=O)CCC4=C3[C@@H](c3ccc(N(C)C)cc3)C[C@@]21C` [mifepristone]?
A: induction of MAFbx and MuRF1 in septic rats (MAFbx and MuRF1; CLP, 24 h): failed to alter; induction of MAFbx and MuRF1 by dexamethasone (MAFbx and MuRF1; similar time point): effectively blocking; mortality (muscle protein breakdown; concurrent cytokine and mifepristone administration): ~50%; induction of muscle protein degradation brought about by tumor necrosis factor (TNF) (muscle protein breakdown; concurrent mifepristone): attenuates; proteolysis accompanied by interleukin-1 α administration (muscle protein breakdown; concurrent mifepristone): not blocked; induction of MAFbx, MuRF1, and Foxo1 in muscle (MAFbx, MuRF1, and Foxo1): blocked; activity at other steroid receptors (other steroid receptors): has activity; angiotensin II induced muscle wasting (muscle wasting): reversed; half-life (in words) (in vivo): very short; half-life (rodents, ref Heikinheimo et al., 1994): 1 to 2 h; tyrosine release from muscle explants (muscle explants): significantly reduced
